In ChEMBL document CHEMBL1152560, “Substituted 2-arylbenzothiazoles as kinase inhibitors: hit-to-lead optimization” (Bioorg Med Chem, 2009):

Experiments:
[1] = molecular target: Protein kinase C beta type (Homo sapiens) (UniProt P05771); experiment: Residual activity of PKCbeta1 at 1 uM by microplate scintillation counting
[2] = molecular target: G protein-coupled receptor kinase 6 (Homo sapiens) (UniProt P43250); experiment: Residual activity of GRK6 at 0.1 uM by microplate scintillation counting
G protein-coupled receptor kinase 6 (Homo sapiens), sequence (P43250 whole entry, looked up): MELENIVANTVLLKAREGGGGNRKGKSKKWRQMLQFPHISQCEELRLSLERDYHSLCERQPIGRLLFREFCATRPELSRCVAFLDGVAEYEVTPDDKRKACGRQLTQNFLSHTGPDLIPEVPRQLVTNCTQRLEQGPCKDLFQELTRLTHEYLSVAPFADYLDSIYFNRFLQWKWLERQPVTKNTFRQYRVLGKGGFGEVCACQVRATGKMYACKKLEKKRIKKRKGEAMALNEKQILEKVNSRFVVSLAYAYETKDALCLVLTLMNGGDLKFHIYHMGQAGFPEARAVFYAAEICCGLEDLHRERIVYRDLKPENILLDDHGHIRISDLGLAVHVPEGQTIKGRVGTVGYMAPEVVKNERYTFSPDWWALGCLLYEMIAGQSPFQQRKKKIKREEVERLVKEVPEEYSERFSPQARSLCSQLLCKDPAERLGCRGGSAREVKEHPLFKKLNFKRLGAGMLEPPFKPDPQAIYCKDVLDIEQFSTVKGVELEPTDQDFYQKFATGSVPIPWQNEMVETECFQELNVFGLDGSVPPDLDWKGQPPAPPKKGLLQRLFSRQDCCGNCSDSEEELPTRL

[3] = molecular target: T1, Serine/threonine-protein kinase Nek1 (Homo sapiens) (UniProt Q96PY6); experiment: Residual activity of NEK1 at 1 uM by microplate scintillation counting
T1 sequence (whole entry): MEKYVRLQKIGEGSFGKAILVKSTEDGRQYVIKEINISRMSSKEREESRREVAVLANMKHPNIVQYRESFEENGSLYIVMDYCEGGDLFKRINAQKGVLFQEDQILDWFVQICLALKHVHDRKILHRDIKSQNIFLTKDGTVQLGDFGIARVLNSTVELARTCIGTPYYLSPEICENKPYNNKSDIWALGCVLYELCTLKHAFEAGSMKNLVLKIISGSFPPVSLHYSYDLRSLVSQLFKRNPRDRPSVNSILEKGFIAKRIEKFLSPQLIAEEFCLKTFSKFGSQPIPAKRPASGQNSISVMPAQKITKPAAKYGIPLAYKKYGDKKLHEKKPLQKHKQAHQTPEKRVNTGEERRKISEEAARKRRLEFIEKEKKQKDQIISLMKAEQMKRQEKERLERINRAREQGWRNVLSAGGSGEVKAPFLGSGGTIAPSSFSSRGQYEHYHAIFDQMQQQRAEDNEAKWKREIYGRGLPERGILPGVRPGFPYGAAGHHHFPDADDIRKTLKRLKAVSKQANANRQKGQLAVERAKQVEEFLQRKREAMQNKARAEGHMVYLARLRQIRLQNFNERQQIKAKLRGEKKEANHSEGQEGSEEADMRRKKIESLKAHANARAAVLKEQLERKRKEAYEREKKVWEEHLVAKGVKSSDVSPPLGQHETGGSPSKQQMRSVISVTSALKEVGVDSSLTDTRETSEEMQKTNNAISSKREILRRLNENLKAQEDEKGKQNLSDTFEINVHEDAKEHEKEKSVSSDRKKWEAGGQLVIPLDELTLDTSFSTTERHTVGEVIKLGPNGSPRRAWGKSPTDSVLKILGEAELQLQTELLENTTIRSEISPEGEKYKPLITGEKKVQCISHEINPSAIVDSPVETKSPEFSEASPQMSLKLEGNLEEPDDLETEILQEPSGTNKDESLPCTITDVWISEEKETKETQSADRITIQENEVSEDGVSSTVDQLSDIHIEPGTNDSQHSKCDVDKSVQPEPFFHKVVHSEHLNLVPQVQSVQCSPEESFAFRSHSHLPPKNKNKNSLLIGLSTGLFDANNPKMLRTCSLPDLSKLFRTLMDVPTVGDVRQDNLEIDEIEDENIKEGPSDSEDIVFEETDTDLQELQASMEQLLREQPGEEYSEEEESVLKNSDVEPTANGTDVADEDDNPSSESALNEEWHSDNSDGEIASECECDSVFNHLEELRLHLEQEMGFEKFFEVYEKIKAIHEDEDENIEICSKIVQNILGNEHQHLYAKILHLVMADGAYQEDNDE

[4] = molecular target: Receptor tyrosine-protein kinase erbB-4 (Homo sapiens) (UniProt Q15303); experiment: Residual activity of ERBB4 at 10 uM by microplate scintillation counting
[5] = molecular target: Activated CDC42 kinase 1 (Homo sapiens) (UniProt Q07912); experiment: Residual activity of ACK1 at 10 uM by microplate scintillation counting
Activated CDC42 kinase 1 (Homo sapiens), sequence (Q07912 whole entry, looked up): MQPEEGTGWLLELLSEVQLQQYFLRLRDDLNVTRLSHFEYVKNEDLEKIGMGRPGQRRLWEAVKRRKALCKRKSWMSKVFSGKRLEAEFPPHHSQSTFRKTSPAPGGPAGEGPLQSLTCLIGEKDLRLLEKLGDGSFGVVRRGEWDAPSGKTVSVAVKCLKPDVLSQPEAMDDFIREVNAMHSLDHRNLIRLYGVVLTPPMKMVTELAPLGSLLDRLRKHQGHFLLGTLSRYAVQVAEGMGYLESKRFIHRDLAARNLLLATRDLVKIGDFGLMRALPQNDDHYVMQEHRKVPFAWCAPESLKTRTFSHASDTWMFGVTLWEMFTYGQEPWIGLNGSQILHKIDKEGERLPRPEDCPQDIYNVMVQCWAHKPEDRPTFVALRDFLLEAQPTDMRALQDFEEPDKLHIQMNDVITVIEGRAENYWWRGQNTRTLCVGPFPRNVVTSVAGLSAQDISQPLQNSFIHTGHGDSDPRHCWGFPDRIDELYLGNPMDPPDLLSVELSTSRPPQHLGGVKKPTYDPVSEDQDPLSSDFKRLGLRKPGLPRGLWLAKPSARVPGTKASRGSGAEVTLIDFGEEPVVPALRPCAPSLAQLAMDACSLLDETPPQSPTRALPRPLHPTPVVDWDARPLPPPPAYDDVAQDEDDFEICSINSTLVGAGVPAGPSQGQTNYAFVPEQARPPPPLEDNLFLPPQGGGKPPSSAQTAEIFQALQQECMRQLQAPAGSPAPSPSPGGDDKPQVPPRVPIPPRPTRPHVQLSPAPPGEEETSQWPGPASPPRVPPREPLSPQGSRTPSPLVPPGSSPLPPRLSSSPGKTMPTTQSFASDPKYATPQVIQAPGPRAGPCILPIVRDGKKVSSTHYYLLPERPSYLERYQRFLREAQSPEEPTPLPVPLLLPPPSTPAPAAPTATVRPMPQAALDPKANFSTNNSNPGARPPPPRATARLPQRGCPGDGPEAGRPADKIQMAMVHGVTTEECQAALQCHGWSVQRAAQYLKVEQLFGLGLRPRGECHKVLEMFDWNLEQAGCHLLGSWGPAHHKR

[6] = molecular target: Mast/stem cell growth factor receptor Kit (Homo sapiens) (UniProt P10721); experiment: Residual activity of wild type KIT at 10 uM by microplate scintillation counting
[7] = molecular target: Macrophage-stimulating protein receptor (Homo sapiens) (UniProt Q04912); experiment: Residual activity of RON at 0.1 uM by microplate scintillation counting
Macrophage-stimulating protein receptor (Homo sapiens), sequence (Q04912 25-304 limits assumed): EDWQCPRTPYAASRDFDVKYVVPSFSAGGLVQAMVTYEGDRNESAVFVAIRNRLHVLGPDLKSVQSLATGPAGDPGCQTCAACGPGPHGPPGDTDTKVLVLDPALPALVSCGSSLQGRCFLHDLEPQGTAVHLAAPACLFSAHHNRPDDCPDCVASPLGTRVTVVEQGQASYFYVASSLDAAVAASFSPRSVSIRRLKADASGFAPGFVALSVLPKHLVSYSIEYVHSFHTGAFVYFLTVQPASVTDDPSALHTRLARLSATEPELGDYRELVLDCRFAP
Macrophage-stimulating protein receptor (Homo sapiens), sequence (Q04912 310-1400 limits assumed): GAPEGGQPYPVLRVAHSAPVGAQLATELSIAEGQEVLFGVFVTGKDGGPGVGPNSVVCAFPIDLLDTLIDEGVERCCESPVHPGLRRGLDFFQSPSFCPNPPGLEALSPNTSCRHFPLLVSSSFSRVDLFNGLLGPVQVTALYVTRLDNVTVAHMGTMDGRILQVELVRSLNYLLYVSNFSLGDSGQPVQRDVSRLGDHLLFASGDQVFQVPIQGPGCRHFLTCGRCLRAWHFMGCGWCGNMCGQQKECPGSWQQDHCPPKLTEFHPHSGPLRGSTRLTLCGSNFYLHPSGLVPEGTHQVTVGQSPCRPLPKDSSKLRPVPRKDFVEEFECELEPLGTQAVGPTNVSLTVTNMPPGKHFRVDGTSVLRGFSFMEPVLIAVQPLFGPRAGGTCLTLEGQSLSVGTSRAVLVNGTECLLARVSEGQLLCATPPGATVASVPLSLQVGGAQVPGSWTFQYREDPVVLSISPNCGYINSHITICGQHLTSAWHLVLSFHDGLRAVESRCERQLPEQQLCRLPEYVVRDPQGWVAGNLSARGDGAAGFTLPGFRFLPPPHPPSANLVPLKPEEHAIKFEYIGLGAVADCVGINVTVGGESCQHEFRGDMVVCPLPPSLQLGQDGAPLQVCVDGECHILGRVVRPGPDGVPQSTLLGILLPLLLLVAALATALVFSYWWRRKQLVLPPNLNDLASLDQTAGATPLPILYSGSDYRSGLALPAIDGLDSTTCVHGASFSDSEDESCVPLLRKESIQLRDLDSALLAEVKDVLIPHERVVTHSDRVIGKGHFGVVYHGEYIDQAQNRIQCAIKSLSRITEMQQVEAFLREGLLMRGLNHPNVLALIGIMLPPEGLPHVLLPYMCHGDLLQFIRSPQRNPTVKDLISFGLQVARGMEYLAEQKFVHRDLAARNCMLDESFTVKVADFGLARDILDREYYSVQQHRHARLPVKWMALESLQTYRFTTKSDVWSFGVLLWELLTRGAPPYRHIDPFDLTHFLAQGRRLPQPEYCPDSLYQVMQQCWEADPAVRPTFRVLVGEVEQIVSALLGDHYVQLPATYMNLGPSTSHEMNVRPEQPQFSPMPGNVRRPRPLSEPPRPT

[8] = molecular target: Serine/threonine-protein kinase 33 (Homo sapiens) (UniProt Q9BYT3); experiment: Residual activity of STK33 at 0.1 uM by microplate scintillation counting
Serine/threonine-protein kinase 33 (Homo sapiens), sequence (Q9BYT3 whole entry, looked up): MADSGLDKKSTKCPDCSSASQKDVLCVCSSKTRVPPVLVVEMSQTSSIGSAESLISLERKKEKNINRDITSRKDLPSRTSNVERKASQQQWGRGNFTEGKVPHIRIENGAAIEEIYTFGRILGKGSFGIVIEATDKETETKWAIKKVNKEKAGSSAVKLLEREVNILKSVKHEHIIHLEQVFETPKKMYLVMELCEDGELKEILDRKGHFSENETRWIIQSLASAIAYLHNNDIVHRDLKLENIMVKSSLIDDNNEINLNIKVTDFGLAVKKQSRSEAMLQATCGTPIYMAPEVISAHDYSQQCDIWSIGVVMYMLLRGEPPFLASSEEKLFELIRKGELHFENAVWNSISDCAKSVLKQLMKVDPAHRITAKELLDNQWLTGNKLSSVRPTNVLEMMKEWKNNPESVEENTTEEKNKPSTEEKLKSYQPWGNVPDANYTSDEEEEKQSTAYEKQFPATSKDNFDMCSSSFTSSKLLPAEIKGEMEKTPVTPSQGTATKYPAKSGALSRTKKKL

[9] = molecular target: BDNF/NT-3 growth factors receptor (Homo sapiens) (UniProt Q16620); experiment: Residual activity of TRK-B at 0.1 uM by microplate scintillation counting
BDNF/NT-3 growth factors receptor (Homo sapiens), sequence (Q16620 32-822 limits assumed): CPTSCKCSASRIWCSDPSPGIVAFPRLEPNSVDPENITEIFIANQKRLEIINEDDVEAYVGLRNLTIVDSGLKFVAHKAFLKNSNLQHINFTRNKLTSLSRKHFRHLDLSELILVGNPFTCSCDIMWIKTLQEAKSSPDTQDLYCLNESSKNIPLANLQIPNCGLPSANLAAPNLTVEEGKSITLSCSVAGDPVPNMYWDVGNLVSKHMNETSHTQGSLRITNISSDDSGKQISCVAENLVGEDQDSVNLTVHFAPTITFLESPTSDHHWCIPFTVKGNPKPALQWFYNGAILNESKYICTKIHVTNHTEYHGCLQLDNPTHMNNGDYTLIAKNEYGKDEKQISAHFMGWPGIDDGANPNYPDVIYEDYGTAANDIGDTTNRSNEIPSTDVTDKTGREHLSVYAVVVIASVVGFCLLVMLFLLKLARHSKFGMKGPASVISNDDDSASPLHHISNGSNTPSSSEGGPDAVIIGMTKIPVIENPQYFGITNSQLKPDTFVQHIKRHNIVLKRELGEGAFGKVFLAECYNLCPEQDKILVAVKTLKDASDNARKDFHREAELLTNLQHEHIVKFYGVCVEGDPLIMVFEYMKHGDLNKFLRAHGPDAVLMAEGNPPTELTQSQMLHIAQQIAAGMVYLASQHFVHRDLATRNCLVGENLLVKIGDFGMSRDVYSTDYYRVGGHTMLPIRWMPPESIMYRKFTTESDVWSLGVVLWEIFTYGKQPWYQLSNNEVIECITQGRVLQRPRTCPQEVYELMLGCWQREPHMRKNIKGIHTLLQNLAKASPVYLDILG

[10] = molecular target: T2, Tyrosine-protein kinase receptor TYRO3 (Homo sapiens) (UniProt Q06418); experiment: Residual activity of TYRO3 at 0.1 uM by microplate scintillation counting
T2 sequence (whole entry): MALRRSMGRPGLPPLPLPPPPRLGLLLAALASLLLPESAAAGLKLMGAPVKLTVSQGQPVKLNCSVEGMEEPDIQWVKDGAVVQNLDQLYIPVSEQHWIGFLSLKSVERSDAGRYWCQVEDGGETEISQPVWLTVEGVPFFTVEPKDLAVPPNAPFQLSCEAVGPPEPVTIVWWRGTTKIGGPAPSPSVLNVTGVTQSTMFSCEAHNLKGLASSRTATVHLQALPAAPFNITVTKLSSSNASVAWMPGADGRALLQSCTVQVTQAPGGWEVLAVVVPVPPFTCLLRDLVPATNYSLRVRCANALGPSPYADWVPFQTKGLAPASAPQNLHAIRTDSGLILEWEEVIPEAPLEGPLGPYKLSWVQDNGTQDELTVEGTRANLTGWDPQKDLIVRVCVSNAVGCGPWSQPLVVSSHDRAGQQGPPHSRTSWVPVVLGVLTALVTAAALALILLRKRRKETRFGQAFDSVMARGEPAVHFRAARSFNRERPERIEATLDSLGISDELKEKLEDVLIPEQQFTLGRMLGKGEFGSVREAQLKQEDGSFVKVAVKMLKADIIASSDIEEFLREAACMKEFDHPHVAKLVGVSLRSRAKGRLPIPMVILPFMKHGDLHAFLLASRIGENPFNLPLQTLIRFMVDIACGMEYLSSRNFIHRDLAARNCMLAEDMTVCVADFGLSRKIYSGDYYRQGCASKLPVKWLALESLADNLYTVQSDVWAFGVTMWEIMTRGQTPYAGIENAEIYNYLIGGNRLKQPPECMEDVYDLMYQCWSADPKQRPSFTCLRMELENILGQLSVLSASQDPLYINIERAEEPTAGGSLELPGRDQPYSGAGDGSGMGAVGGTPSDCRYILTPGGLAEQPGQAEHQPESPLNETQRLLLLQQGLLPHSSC

Protein kinase C beta type (Homo sapiens), sequence (P05771 2-671 limits assumed): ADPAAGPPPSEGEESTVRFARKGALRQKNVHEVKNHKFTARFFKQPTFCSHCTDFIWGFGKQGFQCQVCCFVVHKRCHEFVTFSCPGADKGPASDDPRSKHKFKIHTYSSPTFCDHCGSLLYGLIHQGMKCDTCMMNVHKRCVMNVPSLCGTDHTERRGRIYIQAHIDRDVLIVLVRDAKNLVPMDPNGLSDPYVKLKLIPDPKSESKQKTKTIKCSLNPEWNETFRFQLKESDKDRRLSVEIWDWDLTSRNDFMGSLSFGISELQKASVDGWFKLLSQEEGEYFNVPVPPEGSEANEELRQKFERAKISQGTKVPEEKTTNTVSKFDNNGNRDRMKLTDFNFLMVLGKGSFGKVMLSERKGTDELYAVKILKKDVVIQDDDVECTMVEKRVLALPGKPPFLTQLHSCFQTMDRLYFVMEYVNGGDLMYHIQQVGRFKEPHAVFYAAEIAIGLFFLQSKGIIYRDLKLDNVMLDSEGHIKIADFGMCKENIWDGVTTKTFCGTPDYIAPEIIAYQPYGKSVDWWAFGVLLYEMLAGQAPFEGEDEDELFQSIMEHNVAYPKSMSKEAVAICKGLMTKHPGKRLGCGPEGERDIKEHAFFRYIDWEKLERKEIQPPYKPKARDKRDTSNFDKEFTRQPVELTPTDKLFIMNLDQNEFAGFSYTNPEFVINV

residual activity [1] | residual activity [2] | residual activity [3] | residual activity [4] | residual activity [5] | residual activity [6] | residual activity [7] | residual activity [8] | residual activity [9] | residual activity [10] | SMILES
105% | 88% | 85% | 116% | 31% | 31% | 90% | 96% | 97% | 106% | COc1cc2c(Oc3ccc(-c4nc5ccccc5s4)cc3)ncnc2cc1OCCCN1CCCC1
103% | 88% | 94% | 54% | 40% | 32% | 72% | 85% | 94% | 115% | COc1cc2c(Oc3ccc(-c4nc5ccccc5s4)cc3F)ncnc2cc1OCCCN1CCN(C)CC1
108% | 79% | 85% | 118% | 35% | 30% | 74% | 81% | 82% | 120% | COc1cc2c(Oc3ccc(-c4nc5ccccc5s4)cc3)ncnc2cc1OCCCN1CCN(C)CC1
